In ChEMBL document CHEMBL4020826 (J Med Chem, 2018):

Experiments:
[1] = target: T1, Metabotropic glutamate receptor 2 (Homo sapiens, UniProt Q14416); experiment: Agonist activity at human mGlu2 receptor expressed in HEK cells assessed as inhibition of forskolin-stimulated cAMP formation after 20 mins by HTRF assay; format: functional, cell-based
[2] = target: T2, Metabotropic glutamate receptor 3 (Homo sapiens, UniProt Q14832); experiment: biochemical
Description: Displacement of [3H]-LY459477 from recombinant human mGlu3 receptor expressed in HEK cell membranes after 90 mins by liquid scintillation counting

[3] = target: T2, Metabotropic glutamate receptor 3
Description: Agonist activity at human mGlu3 receptor expressed in HEK cells assessed as inhibition of forskolin-stimulated cAMP formation after 20 mins by HTRF assay

[4] = target: T1, Metabotropic glutamate receptor 2; experiment: Displacement of [3H]-LY459477 from recombinant human mGlu2 receptor expressed in HEK cell membranes after 90 mins by liquid scintillation counting
[5] = target: T1, Metabotropic glutamate receptor 2; experiment: Antagonist activity at human mGlu2 receptor expressed in HEK cells assessed as reversal of DCG-4 inhibited forskolin-stimulated cAMP formation after 20 mins by HTRF assay; format: functional, cell-based
[6] = target: T2, Metabotropic glutamate receptor 3; experiment: Antagonist activity at human mGlu3 receptor expressed in HEK cells assessed as reversal of DCG-4 inhibited forskolin-stimulated cAMP formation after 20 mins by HTRF assay; format: functional, cell-based

T1 sequence (Q14416 whole entry): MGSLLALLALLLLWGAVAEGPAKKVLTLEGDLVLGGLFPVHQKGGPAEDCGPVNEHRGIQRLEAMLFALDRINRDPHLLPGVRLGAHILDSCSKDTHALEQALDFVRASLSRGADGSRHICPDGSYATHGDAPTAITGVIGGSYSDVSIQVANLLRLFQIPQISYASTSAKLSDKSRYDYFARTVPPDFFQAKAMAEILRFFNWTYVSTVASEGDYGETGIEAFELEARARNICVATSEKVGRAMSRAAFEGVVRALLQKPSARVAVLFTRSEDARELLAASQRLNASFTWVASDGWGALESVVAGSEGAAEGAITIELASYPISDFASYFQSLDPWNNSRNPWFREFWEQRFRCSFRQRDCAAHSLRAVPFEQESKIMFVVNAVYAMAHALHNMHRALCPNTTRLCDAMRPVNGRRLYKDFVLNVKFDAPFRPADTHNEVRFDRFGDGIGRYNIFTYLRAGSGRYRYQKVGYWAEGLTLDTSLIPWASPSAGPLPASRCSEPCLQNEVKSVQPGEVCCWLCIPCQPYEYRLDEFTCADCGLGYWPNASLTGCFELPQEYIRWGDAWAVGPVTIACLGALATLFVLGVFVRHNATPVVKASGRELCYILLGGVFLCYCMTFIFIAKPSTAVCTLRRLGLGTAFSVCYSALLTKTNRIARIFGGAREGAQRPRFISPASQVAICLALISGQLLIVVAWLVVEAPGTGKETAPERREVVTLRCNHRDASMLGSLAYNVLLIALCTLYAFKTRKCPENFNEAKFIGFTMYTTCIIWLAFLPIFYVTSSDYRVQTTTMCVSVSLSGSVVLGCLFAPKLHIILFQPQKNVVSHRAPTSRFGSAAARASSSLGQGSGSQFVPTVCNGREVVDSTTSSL
T2 sequence (Q14832 whole entry): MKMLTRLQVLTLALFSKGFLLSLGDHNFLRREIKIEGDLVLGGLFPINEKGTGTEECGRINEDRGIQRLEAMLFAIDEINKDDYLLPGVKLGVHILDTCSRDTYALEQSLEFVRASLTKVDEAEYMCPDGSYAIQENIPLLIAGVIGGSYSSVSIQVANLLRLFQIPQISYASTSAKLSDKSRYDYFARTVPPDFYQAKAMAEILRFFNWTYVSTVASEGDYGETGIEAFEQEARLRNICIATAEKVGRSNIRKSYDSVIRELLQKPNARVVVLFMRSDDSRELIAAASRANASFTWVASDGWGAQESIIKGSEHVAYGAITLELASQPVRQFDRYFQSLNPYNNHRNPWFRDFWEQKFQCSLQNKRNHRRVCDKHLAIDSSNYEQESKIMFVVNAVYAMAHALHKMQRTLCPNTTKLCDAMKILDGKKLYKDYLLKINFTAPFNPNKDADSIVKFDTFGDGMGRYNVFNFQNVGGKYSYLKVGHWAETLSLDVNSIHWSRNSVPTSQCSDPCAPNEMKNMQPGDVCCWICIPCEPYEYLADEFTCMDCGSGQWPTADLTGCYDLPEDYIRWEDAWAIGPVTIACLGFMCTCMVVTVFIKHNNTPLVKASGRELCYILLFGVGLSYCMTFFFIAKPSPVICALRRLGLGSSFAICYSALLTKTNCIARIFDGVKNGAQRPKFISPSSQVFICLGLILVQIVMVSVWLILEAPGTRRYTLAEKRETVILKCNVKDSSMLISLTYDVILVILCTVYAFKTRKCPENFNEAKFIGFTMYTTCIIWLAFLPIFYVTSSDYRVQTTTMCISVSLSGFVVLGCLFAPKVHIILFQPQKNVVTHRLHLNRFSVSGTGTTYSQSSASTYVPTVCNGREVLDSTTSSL

SMILES	EC50 [1] [nM]	Ki [2] [nM]	EC50 [3] [nM]	Ki [4] [nM]	IC50 [5] [nM]	IC50 [6] [nM]
N[C@@]1(C(=O)O)C[C@H](NC(=O)c2ccccc2F)[C@H]2[C@H](C(=O)O)[C@H]21	17.1	5.79	5.1	218		
COc1ccccc1C(=O)N[C@H]1C[C@@](N)(C(=O)O)[C@@H]2[C@@H](C(=O)O)[C@@H]21	26.5	23.2	7.15	151		
N[C@H]1C[C@@](N)(C(=O)O)[C@@H]2[C@@H](C(=O)O)[C@@H]21		284		4410		
N[C@@]1(C(=O)O)C[C@H](NC(=O)c2ccccc2Cl)[C@H]2[C@H](C(=O)O)[C@H]21	42.5	27.4	4.96	391		
N[C@@]1(C(=O)O)C[C@H](NC(=O)c2ccccc2O)[C@H]2[C@H](C(=O)O)[C@H]21	7.44	1.79	0.17	58.2		
N[C@@]1(C(=O)O)C[C@H](NC(=O)c2ccc(O)cc2)[C@H]2[C@H](C(=O)O)[C@H]21	6.32	9.34	2.12	54.7		
N[C@@]1(C(=O)O)C[C@H](NC(=O)c2cccc(O)c2)[C@H]2[C@H](C(=O)O)[C@H]21	3.77	2.27	0.71	31.5		
CC(=O)N[C@H]1C[C@@](N)(C(=O)O)[C@@H]2[C@@H](C(=O)O)[C@@H]21		177		898		
N[C@@]1(C(=O)O)C[C@H](NC(=O)c2ccc(Cl)cc2)[C@H]2[C@H](C(=O)O)[C@H]21	6.97	2.29	5.15	137		
N[C@@]1(C(=O)O)C[C@H](NC(=O)c2cccc(Cl)c2)[C@H]2[C@H](C(=O)O)[C@H]21	8.37	0.47	0.82	85.3		
N[C@@]1(C(=O)O)C[C@H](NC(=O)C2CCCCC2)[C@H]2[C@H](C(=O)O)[C@H]21	3390	757	> 25000	1520	12000	9990
N[C@@]1(C(=O)O)C[C@H](NCc2ccccc2)[C@H]2[C@H](C(=O)O)[C@H]21	508	1070	356	11200		
N[C@@]1(C(=O)O)C[C@H](NC(=O)c2cccc(F)c2)[C@H]2[C@H](C(=O)O)[C@H]21	18.1	2.11	2	214		
COc1ccc(C(=O)N[C@H]2C[C@@](N)(C(=O)O)[C@@H]3[C@@H](C(=O)O)[C@@H]32)cc1	16	4.56	2.44	188		
N[C@@]1(C(=O)O)C[C@H](NC(=O)CCc2ccccc2)[C@H]2[C@H](C(=O)O)[C@H]21	893	281	> 25000	595	5540	2050
N[C@@]1(C(=O)O)C[C@H](NC(=O)c2ccccc2)[C@H]2[C@H](C(=O)O)[C@H]21	19.8	6.75	4.96	294		
N[C@@]1(C(=O)O)C[C@H](NC(=O)c2ccc(F)cc2)[C@H]2[C@H](C(=O)O)[C@H]21	19.1	4.34	6.6	330		
